pKi: −log10 of the molar value. Counter-ions that a name gives are not always drawn. Like-named read-outs stand apart in the source and are kept apart here.
Columns and labels:
[1] = tested on: human platelet rich plasma (PRP); assay: ADP induced platelet aggregation assay
[2] = molecular target: cloned human P2Y1 receptors (Homo sapiens (Human), UniProt P47900); assay: Binding Assay A: membrane binding assay, [33P] 2MeS-ADP; conditions: for Ki: values marked *, WGA FlashPlate, [33P] 2MeS-ADP displacement, read-out: P2Y1 Ki (nM) *Using binding assay A
From the text: A membrane binding assay was used to identify inhibitors of [^33P] […] The cDNA clone for human P2Y1 was obtained from Incyte Pharmaceuticals and its sequence confirmed by established techniques (for a compendium of techniques used see Ausubel, F. et al. Current Protocols in Molecular Biology, John Wiley and Sons, NY, N.Y. (1995)). The essential coding sequences were subcloned into pCDNA 3.1 (Invitrogen) to produce a P2Y1 expression construct. This construct was then transfected into the human embryonic kidney cell line HEK-293 and stable transfectants selected in GENETICIN® (G418 sulfate; Life Technologies). […] Membranes were prepared by growing HEK293 #49 in 150 mm dishes in DMEM/10% FBS in the presence of 1 mg/ml G418 until cells were 80-90% confluent. Plates were then washed with cold (4° C.) D-PBS twice and cells harvested by scraping into 10 mL D-PBS. Cells were pelleted by centrifugation (1,000 g, 10 min, 4° C.) and the resulting pellet resuspended in Lysis Buffer (10 mM Tris (7.4), 5 mM MgCl2 containing Complete protease inhibitor cocktail (Roche Cat #1873580) as recommended by the manufacturer). The suspension was then homogenized in a Dounce homogenizer (10-15 strokes; B pestle, on ice) and the homogenate spun at 1,000 g, 4° C., 5 min to pellet large debris. The supernatant was centrifuged at 150,000 g, 4° C., for 1 hour and the resulting membrane pellet resuspended in 0.5-1 mL of Buffer B (15 mM HEPES (7.4), 145 mM NaCl, 0.1 mM MgCl2, 5 mM EDTA, 5 mM KCl) and stored at −70° C. until used.
Binding reactions were performed in WGA FLASHPLATE®s (PerkinElmer Life Sciences, Cat # SMP105A) in a volume of 200 μL containing ˜45 fmol of P2Y1 receptor (5 μg of total protein), 0.5 nM [^33P] […] Reactions were allowed to proceed to completion at room temperature for 1 hour and then the aqueous solution aspirated. Plates were sealed and the residual [^33P] bound to the plate determined by scintillation counting.

[3] = Homo sapiens, Platelet, read-out: PA IC50 (μM) @ 10 μM ADP, platelet aggregation induced by 10 μM ADP, human PRP

Chain of cloned human P2Y1 receptors (P47900 whole entry): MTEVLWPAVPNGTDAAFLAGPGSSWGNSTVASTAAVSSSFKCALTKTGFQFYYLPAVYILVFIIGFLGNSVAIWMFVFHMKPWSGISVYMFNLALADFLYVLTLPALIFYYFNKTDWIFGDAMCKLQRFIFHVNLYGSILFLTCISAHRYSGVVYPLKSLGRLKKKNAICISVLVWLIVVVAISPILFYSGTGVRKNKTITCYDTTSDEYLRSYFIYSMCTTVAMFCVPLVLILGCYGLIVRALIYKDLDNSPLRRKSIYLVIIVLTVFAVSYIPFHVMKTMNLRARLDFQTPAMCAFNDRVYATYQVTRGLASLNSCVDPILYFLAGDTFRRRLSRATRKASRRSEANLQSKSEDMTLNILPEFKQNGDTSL

Structure (SMILES): CC(C)(C)CN1CCC2(CC1)CN(c1ccccc1NC(=O)Nc1nc3ccc(Cl)cc3s1)c1c(O)ccc(F)c12 [Example 33, 1-(2-(7-Hydroxy-4-fluoro-1′-neopentylspiro[indoline-3,4′-piperidine]-1-yl)phenyl)-3-(6-chlorobenzo[d]thiazol-2-yl)urea]
- IC50 [1, 3]: 0.4 µM
- Ki [2]: 3.7 nM

Structure (SMILES): Cc1ccc2nc(NC(=O)Nc3ccccc3N3CC4(CCN(CC(C)(C)C)CC4)c4c(F)ccc(O)c43)sc2c1 [Example 34, 1-(2-(7-Hydroxy-4-fluoro-1′-neopentylspiro[indoline-3,4′-piperidine]-1-yl)phenyl)-3-(6-methylbenzo[d]thiazol-2-yl)urea]
- IC50 [1, 3]: 0.5 µM
- Ki [2]: 3.7 nM

Structure (SMILES): CC(C)c1nsc(NC(=O)Nc2ccccc2N2CC3(CCN(CC(C)(C)C)CC3)c3c(F)ccc(O)c32)n1 [Example 35, 1-(2-(4-Fluoro-7-hydroxy-1′-neopentylspiro[indoline-3,4′-piperidine]-1-yl)phenyl)-3-(3-isopropyl-1,2,4-thiadiazol-5-yl)urea]
- IC50 [1, 3]: 0.3 µM
- Ki [2]: 1.9 nM

Structure (SMILES): Cc1nsc(NC(=O)Nc2ccccc2N2CC3(CCN(CC(C)(C)C)CC3)c3c(Cl)ccc(O)c32)n1 [Example 42, 1-(2-(4-Chloro-7-hydroxy-1′-neopentylspiro[indoline-3,4′-piperidine]-1-yl)phenyl)-3-(3-methyl-1,2,4-thiadiazol-5-yl)urea]
- IC50 [1, 3]: 0.3 µM
- Ki [2]: 3.3 nM

Structure (SMILES): CC(C)c1nsc(NC(=O)Nc2ccccc2N2CC3(CCN(CC(C)(C)C)CC3)c3c(Cl)ccc(O)c32)n1 [Example 43, 1-(2-(4-Chloro-7-hydroxy-1′-neopentylspiro[indoline-3,4′-piperidine]-1-yl)phenyl)-3-(3-isopropyl-1,2,4-thiadiazol-5-yl)urea]
- IC50 [1, 3]: 0.3 µM
- Ki [2]: 4.4 nM

Structure (SMILES): CC(C)(C)CN1CCC2(CC1)CN(c1ccccc1NC(=O)Nc1nc3ccc(Cl)cc3s1)c1c(O)cccc12 [Example 75, 1-(6-Chlorobenzo[d]thiazol-2-yl)-3-(2-(7-hydroxy-1′-neopentylspiro [indoline-3,4′-piperidine]-1-yl)phenyl)urea]
- IC50 [1, 3]: 0.4 µM
- Ki [2]: 7.5 nM

Structure (SMILES): CC(C)(C)CN1CCC2(CC1)CN(c1ccccc1NC(=O)Nc1nc3ccc(Cl)nc3s1)c1c(O)ccc(Cl)c12 [Example 167, 1-(2-(4-Chloro-7-hydroxy-1′-neopentylspiro[indoline-3,4′-piperidine]-1-yl)phenyl)-3-(5-chlorothiazolo[5,4-b]pyridin-2-yl)urea, methanesulfonic acid salt]
- IC50 ([1]; read-out: PA IC50 (μM) @ 10 μM ADP, platelet aggregation induced by 10 μM ADP, human PRP): 0.5 µM
- pKi [2]: 8.48

Source: patent publication US9428504B2, “7-hydroxy-spiropipiperidine indolinyl antagonists of P2Y1 receptor” (BRISTOL-MYERS SQUIBB COMPANY, priority 2012, dated 2016)
